US20240122182A1, “PESTICIDALLY ACTIVE HETEROCYCLIC DERIVATIVES WITH SULFUR CONTAINING SUBSTITUENTS” (SYNGENTA CROP PROTECTION AG, priority 2021, published 2024)

Legend:
Format in all cases: in vivo
[1] = tested on: Chilo suppressalis (Striped Rice Stemborer); assay: Activity against Chilo suppressalis (striped rice stemborer), artificial diet; details: 144 h, application rate of 200 ppm, L2 larvae, 6 days after infestation, read-out: control (mortality, anti-feeding effect, growth inhibition)
Method in brief: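 First, artificial diet was treated with aqueous solutions prepared from 10'000 ppm DMSO stocks; second, after drying, L2 larvae (6-8/well) were added; third, effects were assessed at 6 days against untreated controls, counting control when any of three categories was higher.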

[2] = tested on: Diabrotica Balteata (Corn Root Worm); assay: Activity against Diabrotica balteata (corn root worm), maize sprouts sprayed; details: 96 h, application rate of 200 ppm, L2 larvae, 4 days after infestation, read-out: effect in at least one of the two categories (mortality or growth inhibition)
Method in brief: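 Spray test: maize sprouts on agar, aqueous dilutions of 10′000 ppm DMSO stock; after drying, 6–10 L2 larvae/well. Read-out at 4 d post-infestation: mortality and growth inhibition vs untreated.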

[3] = tested on: Euschistus heros (Neotropical Brown Stink Bug); assay: Activity against Euschistus heros (neotropical brown stink bug), soybean leaves sprayed; details: 120 h, application rate of 200 ppm, N2 nymphs, 5 days after infestation, read-out: effect in at least one of the two categories (mortality or growth inhibition)
Experimental: Soybean leaves on agar in 24-well microtiter plates were sprayed with aqueous test solutions prepared from 10′000 ppm DMSO stock solutions. After drying the leaves were infested with N2 nymphs. The samples were assessed for mortality and growth inhibition in comparison to untreated samples 5 days after infestation.

[4] = tested on: Plutella xylostella (Diamond Back Moth); assay: Activity against Plutella xylostella (diamond back moth), artificial diet; details: 192 h, application rate of 200 ppm, eggs, 8 days after infestation, read-out: effect in at least one of the two categories (mortality or growth inhibition)
Experimental: 24-well microtiter plates with artificial diet were treated with aqueous test solutions prepared from 10′000 ppm DMSO stock solutions by pipetting. After drying, Plutella eggs were pipetted through a plastic stencil onto a gel blotting paper and the plate was closed with it. The samples were assessed for mortality and growth inhibition in comparison to untreated samples 8 days after infestation.

[5] = tested on: Spodoptera littoralis (Egyptian Cotton Leaf Worm); assay: Activity against Spodoptera littoralis (Egyptian cotton leaf worm), cotton leaf discs sprayed; details: foliar, 72 h, application rate of 200 ppm, L1 larvae, 3 days after infestation, read-out: control (mortality, anti-feeding effect, growth inhibition)
Method in brief: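 Read-out: mortality, feeding deterrence and growth inhibition, assessed 3 days after infestation relative to untreated samples. Sprayed, dried cotton leaf discs on agar each received five first-instar (L1) larvae; sprays were aqueous solutions prepared from 10′000 ppm DMSO stocks.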

[6] = tested on: Tetranychus urticae (Two-Spotted Spider Mite); assay: Activity against Tetranychus urticae (two-spotted spider mite), bean leaf discs sprayed; details: foliar, 192 h
Experimental: Bean leaf discs on agar in 24-well microtiter plates were sprayed with aqueous test solutions prepared from 10′000 ppm DMSO stock solutions. After drying the leaf discs were infested with a mite population of mixed ages. The samples were assessed for mortality on mixed population (mobile stages) 8 days after infestation.

[7] = tested on: Carpocapsa (Cydia) Pomonella (Codling Moth); assay: Activity against Carpocapsa (Cydia) pomonella (codling moth), larvicide, feeding/contact; details: 336 h, application rate of 12.5 ppm, L1 larvae, 14 days after infestation, read-out: effect in at least one of the two categories (mortality or growth inhibition)
[8] = tested on: Nilaparvata lugens (Brown Plant Hopper); assay: Activity against Nilaparvata lugens (brown plant hopper), larvicide, systemic into water; details: 168 h, application rate of 12.5 ppm, N3 nymphs, 7 days after infestation
Experimental: Larvicide, systemic into water Rice plants cultivated in a nutritive solution were treated with the diluted test solutions into nourishing cultivation system. 1 day after application plants were infested with ˜20 N3 nymphs. 7 days after infestation samples were assessed for mortality and growth regulation.

[9] = tested on: Frankliniella occidentalis (Western Flower Thrips); assay: Activity against Frankliniella occidentalis (western flower thrips), sunflower leaf discs sprayed; details: foliar, 168 h, application rate of 200 ppm, population of mixed ages, 7 days after infestation
Experimental: Sunflower leaf discs were placed on agar in 24-well microtiter plates and sprayed with aqueous test solutions prepared from […] stock solutions. After drying the leaf discs were infested with a Frankliniella population of mixed ages. The samples were assessed for mortality 7 days after infestation.

[10] = tested on: Myzus persicae (Green Peach Aphid); assay: Activity against Myzus persicae (green peach aphid), feeding/contact activity; details: 144 h, application rate of 200 ppm, mixed ages, 6 days after infestation
Experimental: Sunflower leaf discs were placed onto agar in a 24-well microtiter plate and sprayed with aqueous test solutions prepared from 10′000 ppm DMSO stock solutions. After drying, the leaf discs were infested with an aphid population of mixed ages. The samples were assessed for mortality 6 days after infestation.

CCS(=O)(=O)c1cc(C(C)(C)F)cnc1-c1cc2c(cn1)N(CC(F)(F)C(F)(F)F)C(=O)CC2 [P23, 6-[3-ethylsulfonyl-5-(1-fluoro-1-methyl-ethyl)-2-pyridyl]-1-(2,2,3,3,3-pentafluoropropyl)-3,4-dihydro-1,7-naphthyridin-2-one]
≥ 80%: mortality at 200 ppm [1] | percent effect (mortality or growth inhibition) at 200 ppm [2] | percent effect (mortality or growth inhibition) at 200 ppm [3] | percent effect (mortality or growth inhibition) at 200 ppm [4] | mortality at 200 ppm [5] | mortality at 200 ppm [6] | percent effect (mortality or growth inhibition) at 12.5 ppm [7] | mortality at 12.5 ppm [8]

CCSc1cc(C2(C#N)CC2)cnc1-c1cc2c(cn1)N(CC(F)(F)C(F)(F)F)C(=O)OC2 [P4, 1-[5-ethylsulfanyl-6-[2-oxo-1-(2,2,3,3,3-pentafluoropropyl)-4H-pyrido[3,4-d][1,3]oxazin-6-yl]-3-pyridyl]cyclopropanecarbonitrile]
≥ 80%: mortality at 200 ppm [1] | percent effect (mortality or growth inhibition) at 200 ppm [2] | percent effect (mortality or growth inhibition) at 200 ppm [3] | mortality at 200 ppm [9] | mortality at 200 ppm [10] | percent effect (mortality or growth inhibition) at 200 ppm [4] | mortality at 200 ppm [5]
